“And” between values parts separate entries of the source, which are not always exact repeats. Equal entries are not always repeated. Where two headings read alike, the source gives them in different places.
Key:
[1] = system: Abutilon theophrasti (velvetleaf, ABUTH); assay: Greenhouse trial, % visual weed control; format: in vivo; conditions: 14DAA
Protocol: (§1) Greenhouse trials were conducted under controlled environment greenhouse conditions, with plants grown in pots with Metromix soil and bottom watered. Treatments were applied with 3 replicates per treatment, using a track sprayer with 2 flat fan nozzles at 40 pounds per square inch (PSI). Water was used as the diluent at 140 liters per hectare (L/ha), with weeds being 2-4 leaf stage and approximately 3 inches in height at treatment.

[2] = system: Ambrosia artemisiifolia (common ragweed, AMBEL); assay: Greenhouse trial, % visual weed control; format: in vivo; conditions: 14DAA, 100 g ae/ha alone
Protocol: as §1

[3] = system: Chenopodium album (common lambsquarter, CHEAL); assay: Greenhouse trial, % visual weed control; format: in vivo; conditions: 14DAA
Protocol: as §1

[4] = system: Elymus repens (quackgrass, AGRRE); assay: Greenhouse trial, % visual weed control; format: in vivo; conditions: 14DAA, 200 g ae/ha alone
Protocol: as §1

[5] = system: Conyza bonariensis (hairy fleabane, ERIBO); conditions: field trial
Protocol: (§2) Field trials were conducted under normal field conditions in multiple states in the United States, including but not limited to Alabama, Mississipi, South Carolina and Tennessee; and in Brazil, including but not limited to the states of Goias, Mato Grosso, Parana, Rio Grande do Sul, and Sao Paulo. Trials were established as RCB (randomized complete block) design, with 3-4 replicates per treatment, and plot sizes varying from 2-3 meters (m) wide by 4-8 m long. Treatments were applied with small plot backpack sprayers, using pressurized carbon dioxide (CO2) as propellant. Pressure varied from 22-40 PSI, with spray tips typically of a Flat Fan type applying water diluent at 150 L/ha. Boom sizes varied from 2-3 m in width. Treatments were applied to soybean, cotton or fallow crop land. Weed sizes varied, but all treatments were applied as post-emergence treatments to weeds from 2 leaf to 2 tiller growth stages varying from 2-15 inches (in) in height. No additional adjuvant was mixed with the treatments applied in the field
(§3) The treated plots and control plots were rated blind at various intervals after application.
(§4) Colby's equation was used to determine the herbicidal effects expected from the mixtures (Colby, S. R. Calculation of the synergistic and antagonistic response of herbicide combinations. Weeds 1967 15, 20-22). A t-test (alpha=0.05) between Colby predictions and observed combinations was used to test for significant differences indicating synergy or antagonism.
(§5) The following equation was used to calculate the expected activity of mixtures containing two active ingredients, A and B:
(§6) Expected=A+B−(A×B/100) • A=observed efficacy of active ingredient A at the same concentration as used in the mixture; • B=observed efficacy of active ingredient B at the same concentration as used in the mixture.

[6] = system: Conyza canadensis (horseweed, ERICA); conditions: field trial
Protocol: as §2, §3, §4, §5, §6

[7] = system: Ipomoea quamoclit (cypress vine morningglory, IPOQU); conditions: 7DAA, field trial, 1065 g ae/ha alone
Protocol: as §2, §3, §4, §5, §6

[8] = system: Amaranthus palmeri (Palmer pigweed, AMAPA); assay: Field trial, % visual weed control; format: in vivo
Text: (§7) Boom sizes varied from 2-3 m in width.

[9] = system: Brachiaria decumbens (Surinam grass, BRADC); assay: Field trial, % visual weed control; format: in vivo; conditions: 12DAA, 684 g ae/ha alone
Text: as §7

[10] = system: Commelina benghalensis (hairy wandering Jew, COMBE); assay: Field trial, % visual weed control; format: in vivo; conditions: 780 g ae/ha alone
Text: as §7

[11] = system: Euphorbia heterophylla (wild poinsettia, EPHHL); assay: Field trial, % visual weed control; format: in vivo; conditions: 28DAA, 585 g ae/ha alone
Text: as §7

[12] = system: Euphorbia hirta (garden spurge, EPHHI); assay: Field trial, % visual weed control; format: in vivo
Text: as §7

[13] = system: Glycine max (soybean, glyphosate tolerant, GLXMA); assay: Field trial, % visual weed control; format: in vivo
Text: as §7

[14] = system: Ipomoea grandifolia (Corda-de-viola, IAQGR); assay: Field trial, % visual weed control; format: in vivo; conditions: 17DAA, 780 g ae/ha alone
Text: as §7

[15] = system: Ipomoea species (morningglory, IPOSS); assay: Field trial, % visual weed control; format: in vivo; conditions: 8DAA, 800 g ae/ha alone
Text: as §7

[16] = system: Jacquemontia tamnifolia (smallflower morningglory, IAQTA); assay: Field trial, % visual weed control; format: in vivo; conditions: 7DAA, 1065 g ae/ha alone
Text: as §7

[17] = system: Raphanus raphanistrim (wild radish, RAPRA); assay: Field trial, % visual weed control; format: in vivo; conditions: 6DAA, 780 g ae/ha alone
Text: as §7

[18] = system: Sesbania exaltata (hemp sesbania, SEBEX); assay: Field trial, % visual weed control; format: in vivo; conditions: 8DAA, 800 g ae/ha alone
Text: as §7

[19] = system: Spermacoce latifolia (broadleaf buttonweed, BOILF); assay: Field trial, % visual weed control; format: in vivo
Text: as §7

[20] = system: Tridax procumbens L (tridax daisy, TRQPR); assay: Field trial, % visual weed control; format: in vivo; conditions: 16DAA, 780 g ae/ha alone
Text: as §7

O=C(O)COc1ccc(Cl)cc1Cl [2,4-D-Choline, 2-hydroxy-N,N,N-trimethylethanaminium 2-(2,4-dichlorophenoxyl)acetate]
Mean % Weed Control ([1]; 100 g ae/ha alone): 28.3%
Mean % Weed Control ([1]; 200 g ae/ha alone): 46.7%
Mean % Weed Control ([1]; 400 g ae/ha alone): 73.3%
Mean % Weed Control ([1]; 800 g ae/ha alone): 88.3%
Mean % Weed Control [2]: 25.0%
Mean % Weed Control ([3]; 100 g ae/ha alone): 5.0%
Mean % Weed Control ([3]; 200 g ae/ha alone): 61.7%
Mean % Weed Control ([3]; 400 g ae/ha alone): 75.0%
Mean % Weed Control [4]: 0.0%
Mean % Weed Control ([5]; 6DAA, 720 g ae/ha alone): 5.0%
Mean % Weed Control ([5]; 6DAA, 1080 g ae/ha alone): 5.0%
Mean % Weed Control ([5]; 7DAA, 780 g ae/ha alone): 5.0% and 12.5%
Mean % Weed Control ([5]; 10DAA, 780 g ae/ha alone): 46.3%
Mean % Weed Control ([5]; 20DAA, 780 g ae/ha alone): 34.5%
Mean % Weed Control ([5]; 21DAA, 780 g ae/ha alone): 38.8%
Mean % Weed Control ([5]; 31DAA, 780 g ae/ha alone): 53.8%
Mean % Weed Control ([5]; 36DAA, 780 g ae/ha alone): 27.5% and 17.5%
Mean % Weed Control ([6]; 10DAA, 360 g ae/ha alone): 11.7%
Mean % Weed Control ([6]; 10DAA, 720 g ae/ha alone): 15%
Mean % Weed Control ([6]; 14DAA, 800 g ae/ha alone): 58.8%
Mean % Weed Control ([6]; 15DAA, 360 g ae/ha alone): 16.7%
Mean % Weed Control ([6]; 15DAA, 720 g ae/ha alone): 21.7%
Mean % Weed Control ([6]; 21DAA, 800 g ae/ha alone): 66.3%
Mean % Weed Control ([6]; 28DAA, 800 g ae/ha alone): 50.0%
Mean % Weed Control ([6]; 31DAA, 360 g ae/ha alone): 25%
Mean % Weed Control ([6]; 31DAA, 720 g ae/ha alone): 40%
Mean % Weed Control [7]: 81.3%
Mean % Weed Control ([8]; 7DAA, 800 g ae/ha alone): 47.5%
Mean % Weed Control ([8]; 13DAA, 1065 g ae/ha alone): 45.0%
Mean % Weed Control ([8]; 21DAA, 1065 g ae/ha alone): 38.8%
Mean % Weed Control [9]: 7.5%
Mean % Weed Control ([10]; 12DAA): 70.0%
Mean % Weed Control ([10]; 15DAA): 68.8% and 66.3%
Mean % Weed Control ([10]; 18DAA): 43.8%
Mean % Weed Control ([10]; 27DAA): 66.3%
Mean % Weed Control ([10]; 28DAA): 67.5%
Mean % Weed Control ([10]; 35DAA): 70.0%
Mean % Weed Control [11]: 65.0%
Mean % Weed Control ([12]; 7DAA, 780 g ae/ha alone): 13.8%
Mean % Weed Control ([12]; 18DAA, 780 g ae/ha alone): 36.3%
Mean % Weed Control ([12]; 21DAA, 780 g ae/ha alone): 0.0%
Mean % Weed Control ([12]; 24DAA, 480 g ae/ha alone): 21.7%
Mean % Weed Control ([13]; 7DAA, 960 g ae/ha alone): 50.0%
Mean % Weed Control ([13]; 16DAA, 456 g ae/ha alone): 48.8%
Mean % Weed Control ([13]; 28DAA, 480 g ae/ha alone): 58.8%
Mean % Weed Control ([13]; 28DAA, 960 g ae/ha alone): 67.5%
Mean % Weed Control ([13]; 30DAA, 456 g ae/ha alone): 60.0%
Mean % Weed Control [14]: 98.0%
Mean % Weed Control [15]: 80.0%
Mean % Weed Control [16]: 80.0%
Mean % Weed Control [17]: 80.0%
Mean % Weed Control [18]: 32.5%
Mean % Weed Control ([19]; 18DAA, 780 g ae/ha alone): 37.5%
Mean % Weed Control ([19]; 21DAA, 780 g ae/ha alone): 63.8%
Mean % Weed Control ([19]; 24DAA, 480 g ae/ha alone): 30.0%
Mean % Weed Control ([19]; 27DAA, 780 g ae/ha alone): 67.5%
Mean % Weed Control ([19]; 28DAA, 780 g ae/ha alone): 68.8%
Mean % Weed Control [20]: 12.5%

Source: patent US20150173371A1 (Dow AgroSciences LLC, priority 2013, published 2015)
